Measured values from paper PMC7922534, “Searching for Peptide Inhibitors of T Regulatory Cell Activity by Targeting Specific Domains of FOXP3 Transcription Factor” (Biomedicines, 2021).

What was measured:
[1] = test system: murine CD4+CD25+ Treg cells; assay: In vitro Treg inhibition: anti-CD3 stimulated effector T cells co-cultured with Treg cells, tritiated thymidine incorporation; assay type: cell-based, mouse; details: peptide 50 μM; for Treg inhibitory capacity in vitro (proliferation of effector T cells with anti-CD3 in presence of Treg): BALB/c Teff 10^5 + Treg 10^4 cells/well, 3 days, tritiated thymidine; for toxicity in Teff&Treg co-cultures: cpm below cpm of Teff&Treg co-cultures without peptide
Protocol: (§1) In vitro assays were carried out using (i) the Karpas 299 human cell line (ACC-31, DSMZ, Germany), derived from a human lymphoma with a regulatory T cell profile or (ii) using natural Treg cells isolated from the murine splenocytes. To evaluate the effect of peptides on the immunosuppressive activity of the Karpas 299 cell line, a “mixed lymphocyte reaction” (MLR) assay was carried out using peripheral blood mononuclear cells (PBMCs) from two donors (previously tested to induce a strong MLR reaction in co-culture) (1 × 10^5 cells/well per each PBMC) in the presence or absence of Karpas 299 (1 × 10^4 cells/well). Peptides were added at 50 μM to the co-cultures to evaluate their capacity to restore the production of interferon-gamma (IFN-γ) inhibited by Karpas 299. After 48 hours, the supernatants were extracted to measure interferon-gamma (IFN-γ) by means of a commercial ELISA (Pharmingen, San Diego, CA, US). In vitro assays for Treg inhibition using natural Treg cells: Murine CD4+CD25+ (Treg cells), and CD4+CD25-T-cells (effector T cells) were purified from murine spleen cells by using a murine regulatory T-cell isolation kit (Miltenyi Biotec, Bergisch Gladbach, Germany) according to the manufacturer’s instructions. The purity of the resulting T-cell populations was confirmed to be >95% by flow cytometry. Inhibition of murine T regulatory cell function was measured in an in vitro assay of T-cell stimulation. Effector T cells (10^5 cells/well) from BALB/c mice were stimulated in vitro with 2, 5 μg/mL of anti-mouse CD3 antibody (Pharmingen) in the presence/absence of purified Treg cells (10^4 cells/well) and the indicated peptides (50 μM). T-cell proliferation was measured 3 days later as previously described. Percentage of Treg inhibition was calculated using the following formula: % inhibition= 100*((cpm of Teff&Treg co-cultures in the presence of peptide - cpm of Teff&Treg co-cultures)/(cpm of Teff - cpm of Teff&Treg co-cultures)). The Institutional Review Board on Human Subjects (Clínica Universidad de Navarra, Ref 2016.118) approved this research, and informed consent was obtained from all blood donors.

[2] = test system: 4T1-FOXP3 cells; assay: Proliferation of 4T1-Ctrl and 4T1-FOXP3 tumor cells in vitro; assay type: cell-based; details: peptide 50 μM, Figure 2C
Protocol: The cell line 4T1-FOXP3 expressing FOXP3 was generated. 4T1-WT cells were transfected with empty pcDNA3.1 or with pcDNA3.1 FOXP3, expressing FOXP3 gene and neomycin (which confers resistance to G418 antibiotic) to generate 4T1-Ctrl and 4T1-Foxp3 cells. Briefly, 8 × 10^5 cells were seeded in 6-well culture plates one day prior to transfection. The cultures were 60–80% confluent at the time of transfection. Cells were transfected with 5 ug plasmid DNA per well for 6 hours using lipofectimine 2000 transfection reagent (Invitrogen). After 48 hours, 0.3 mg/mL of G418 drug (GIBCO) was added to the culture during 14 days for the selection of resistant cells. These cells were used in vitro to measure the effect of peptides to overcome the proliferative capacity inhibited by FOXP3. In addition, 4T1-FOXP3 and 4T1-Ctrl cells were injected in vivo (10^5 cells/ mouse) subcutaneously or intravenously to compare their capacity to induce tumors and lung metastases. Murine Lewis lung carcinoma expressing OVA, LLCOVA were kindly provided by Dr. Daniel Ajona (CIMA). The murine colon adenocarcinoma cell line MC38, LLOOVA, 4T1-Ctrl, and 4T1-FOXP3 were cultured in mouse medium (RPMI 1640, 10% fetal calf serum (Sigma), 100 U/mL penicillin, 100 μg/mL streptomycin (Invitrogene), […] Gentamicin (Gibco), 2 mM L-Glutamine (Lifetechnologies), […] β-mercaptoethanol (Sigma), and fungizone (GIBCO). All cell lines were cultured at 37 °C in a humidified atmosphere with 6.5% CO2.

[3] = test system: Karpas 299 human cell line; assay: Mixed lymphocyte reaction with Karpas 299 Treg cell line, IFN-γ by ELISA; assay type: cell-based; details: MLR of PBMCs from two donors + Karpas 299, peptide 50 μM, 48 h
Protocol: as §1

[4] = test system: FOXP3; assay: Surface plasmon resonance binding of peptides to a chip coated with FOXP3; details: peptide 10 μM; Figure 4A
Protocol: (§2) The screening of peptide binders to FOXP3 was performed by surface plasmon resonance (SPR) using a ProteOn XPR36 (Bio-Rad, Hercules CA, USA) optical biosensor. Recombinant protein FOXP3-6His produced and purified from E-coli was immobilized covalently onto a GLC sensor chip (Bio-Rad) using the coupling reagents sulfo-NHS (N-Hydroxysulfosuccinimide) and EDC (1-Ethyl-3-(3-dimethylaminopropyl) carbodiimide, (Bio-Rad) as previously described. Peptide solutions (10 μM) were injected by triplicate in running buffer (phosphate-buffered saline, 0.005% (v/v) Tween 20, pH 7.4) at a flow of 30 μL/min. The interspot signal (obtained in the chip surface not immobilized with protein) was used as reference. FOXP3/NFAT1 and FOXP3/AML1 interactions were analyzed by Alphascreen technology as previously described according to the manufacturer’s protocol (Perkin Elmer, Benelux). Reactions were performed in a 40 μL final volume in 96-well Optiwell microtiter plates (Perkin Elmer). The reaction buffer contained 20 mM HEPES (4-(2-hydroxyethyl)-1-piperazineethanesulfonic acid), pH 7.9, 200 mM KCl, 1 mM MgCl2 and 0.05% bovine serum albumin (BSA). Recombinant NFAT1 expressed with a hexa-Histidine tag was captured by nickel chelate acceptor beads, whereas recombinant FOXP3 expressed with a GST (glutathione S-transferase) tag was captured by glutathione donor beads (Perkin Elmer). For FOXP3 dimerization assays, GST-tagged FOXP3 and His-tagged FOXP3 were co-cultured in the presence or absence of the indicated peptides for 1 h. Then, donor and acceptor beads were added as described above and incubated for 2 h. FOXP3/AML1 interaction was measured following a similar protocol using FOXP3-GST and AML1-His proteins. Exposure of the reaction to direct light was avoided as much as possible, and the emission of light from the acceptor beads was measured in the EnVision plate reader after the indicated incubation period (Perkin Elmer, Benelux).

[5] = test system: murine CD4+CD25+ Treg cells; assay: In vitro Treg inhibition: anti-CD3 stimulated effector T cells co-cultured with Treg cells, tritiated thymidine incorporation; assay type: cell-based, mouse; details: peptide 10 μM (not shown)
[6] = test system: FOXP3/NFAT1; assay: FOXP3/NFAT interaction by Alphascreen; assay type: binding; details: alpha screen; Figure 6C
Protocol: as §2, with “The reaction buffer contained 20 mM HEPES (4-(2-hydroxyethyl)-1-piperazineethanesulfonic acid), pH 7.9, 200 mM KCl, 1 mM MgCl2 and 0.05% bovine serum albumin (BSA). Recombinant NFAT1 expressed with a hexa-Histidine tag was captured by nickel chelate acceptor beads, whereas recombinant FOXP3 expressed with a GST (glutathione S-transferase) tag was captured by glutathione donor beads (Perkin Elmer). For FOXP3 dimerization assays, GST-tagged FOXP3 and His-tagged FOXP3 were co-cultured in the presence or absence of the indicated peptides for 1 h. Then, donor and acceptor beads were added as described above and incubated for 2 h.” left out

[7] = biological target: T1, FOXP3-6His (UniProt Q9BZS1-1 1-417); assay: SPR; FOXP3-6His immobilised covalently on a GLC sensor chip (ProteOn XPR36); peptides 10 uM injected in triplicate; PBS, 0.005% Tween 20, pH 7.4; 30 uL/min; interspot signal as reference; details: both partners purified
T1 construct: FOXP3 (Forkhead box protein 3) transcription factor; also called His-tagged FOXP3
T1 sequence (looked up): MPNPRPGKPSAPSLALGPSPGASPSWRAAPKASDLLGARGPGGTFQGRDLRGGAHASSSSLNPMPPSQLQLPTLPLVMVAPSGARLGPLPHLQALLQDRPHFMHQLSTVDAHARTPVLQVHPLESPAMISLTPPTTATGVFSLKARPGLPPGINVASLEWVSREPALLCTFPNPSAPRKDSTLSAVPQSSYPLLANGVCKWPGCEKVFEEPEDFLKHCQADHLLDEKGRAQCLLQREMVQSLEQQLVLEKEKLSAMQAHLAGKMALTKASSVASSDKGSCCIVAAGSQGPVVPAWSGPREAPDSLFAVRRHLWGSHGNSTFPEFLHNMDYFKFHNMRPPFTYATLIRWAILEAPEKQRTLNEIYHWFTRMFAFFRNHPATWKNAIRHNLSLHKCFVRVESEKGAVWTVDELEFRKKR

## NLSLHKCFVRVESEK [F388–402, 15-mer overlapping peptide from the FKH domain of FOXP3]
[1]
  Treg inhibitory capacity in vitro (proliferation of effector T cells with anti-CD3 in presence of Treg): strong Treg inhibitory capacity

## RRQIHLVLPWRAVQS [p52]
[2]
  effect on tumor-suppressor activity of FOXP3 (proliferation of 4T1-FOXP3 versus 4T1-Ctrl cells): able to inhibit the tumor-suppressor activity
[3]
  Treg inhibitory capacity (Karpas MLR assays): potential Treg inhibitory capacity

## IRGLRFGPGFMWPTL [p50]
[2]
  effect on tumor-suppressor activity of FOXP3 (proliferation of 4T1-FOXP3 versus 4T1-Ctrl cells): able to inhibit the tumor-suppressor activity
[3]
  Treg inhibitory capacity (Karpas MLR assays): potential Treg inhibitory capacity

## KCFVRVESEKGAVWT [F393–407, 15-mer overlapping peptide from the FKH domain of FOXP3]
[1]
  level of T-cell proliferation in presence of peptide versus anti-CD3 stimulated T-cells without Treg: surpassed the maximum proliferation of T-cells stimulated with anti-CD3 in the absence of Treg cells
  Treg inhibitory capacity in vitro (proliferation of effector T cells with anti-CD3 in presence of Treg): strong Treg inhibitory capacity

## CGISYGRKKRRQRRR-KCFVRVESEKG [TAT-393–403, peptide F393–403 fused to the cell-penetrating peptide TAT (Tat 44–57)]
[1]
  Treg inhibitory capacity in vitro (proliferation of effector T cells with anti-CD3 in presence of Treg): significantly improved the Treg inhibitory capacity

## TRMFAFFRNHPATWK [F368–382, 15-mer overlapping peptide from the FKH domain of FOXP3]
[1]
  toxicity in Teff&Treg co-cultures: some toxicity
[4]
  binding capacity to FOXP3 by SPR (FKH domain peptides): good binders to FOXP3
[5]
  Treg inhibitory capacity in vitro: did not exhibit Treg inhibitory capacity
  toxicity in Teff&Treg co-cultures: no toxicity was observed

## IYHWFTRMFAFFRNH [F363–377, 15-mer overlapping peptide from the FKH domain of FOXP3]
[1]
  toxicity in Teff&Treg co-cultures: some toxicity
[4]
  binding capacity to FOXP3 by SPR (FKH domain peptides): good binders to FOXP3
[5]
  Treg inhibitory capacity in vitro: did not exhibit Treg inhibitory capacity
  toxicity in Teff&Treg co-cultures: no toxicity was observed

## NAIRHNLSLHKCFVR [F383–397, 15-mer overlapping peptide from the FKH domain of FOXP3]
[4]
  binding capacity to FOXP3 by SPR (FKH domain peptides): good binders to FOXP3

## RVESEKGAVW [397–406 L, linear version of peptide F397–406 from the FKH domain]
[6]
  disruption of FOXP3-NFAT heterodimerization: retained the activity to impair Foxp3/NFAT interaction

## PATWKNAIRHNLSLH [F378–392, 15-mer overlapping peptide from the FKH domain of FOXP3]
[4]
  binding capacity to FOXP3 by SPR (FKH domain peptides): good binders to FOXP3

## RTLNEIYHWFTRMFA [F358–372, 15-mer overlapping peptide from the FKH domain of FOXP3]
[1]
  Treg inhibitory capacity in vitro (proliferation of effector T cells with anti-CD3 in presence of Treg): strong Treg inhibitory capacity

## GGFSLHPWWRFNHDR [p65]
[2]
  effect on tumor-suppressor activity of FOXP3 (proliferation of 4T1-FOXP3 versus 4T1-Ctrl cells): able to inhibit the tumor-suppressor activity
[3]
  Treg inhibitory capacity (Karpas MLR assays): potential Treg inhibitory capacity

## RSRFFAPFAFLSSGL [p53]
[3]
  Treg inhibitory capacity (Karpas MLR assays): potential Treg inhibitory capacity

## RRIVSQLLHPLWSMP [p61]
[3]
  Treg inhibitory capacity (Karpas MLR assays): potential Treg inhibitory capacity

## WAILEAPEKQRTLNE [F348–362, 15-mer overlapping peptide from the FKH domain of FOXP3]
[1]
  Treg inhibitory capacity in vitro (proliferation of effector T cells with anti-CD3 in presence of Treg): strong Treg inhibitory capacity

## RDFQSFRKMWPFFAM (source: synthetic peptide) [p60]
[7]
  SPR response: > 500 RU

## RFWDYDLMLRVLRPL (source: synthetic peptide) [p59]
[7]
  SPR response: > 500 RU

## GMRFFPWLGVGFAMR (source: synthetic peptide) [p47]
[7]
  SPR response: > 500 RU

## GGFSLHPWWRFNHDR (source: synthetic peptide) [p65]
[7]
  SPR response: > 500 RU

## GLRERMRLPFFVFGG (source: synthetic peptide) [p49]
[7]
  SPR response: > 500 RU

## IRGLRFGPGFMWPTL (source: synthetic peptide) [p50]
[7]
  SPR response: > 500 RU

## RRQIHLVLPWRAVQS (source: synthetic peptide) [p52]
[7]
  SPR response: > 500 RU

## SSKSLAAPLGLFVVG (source: synthetic peptide) [p55]
[7]
  SPR response: > 500 RU
